Reference: patent publication US20170121344A1 (Siga Technologies, Inc., priority 2009, published 2017)
Read-outs that look alike come from different tables or passages of the source.

What was measured:
DENV-4 = assay: Viral yield assay against DENV-4 in Vero cells; assay type: cell-based; settings: Dengue virus
Method in brief: (§1)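 Progeny virus from compound-treated Vero monolayers infected at an MOI of 0.1 is collected after 48 h at 37° C and titered on Vero cells. DMSO serves as control.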

DENV-1 = assay: Viral yield assay against DENV-1 in Vero cells; assay type: cell-based; settings: Dengue virus
Method in brief: as §1

DENV-3 = assay: Viral yield assay against DENV-3 in Vero cells; assay type: cell-based; settings: Dengue virus
Method in brief: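 Vero cells were infected with dengue virus at an MOI of 0.1, treated with compound or DMSO vehicle, and kept at 37° C. Supernatant virus was harvested 48 hours post infection and titered on Vero cells, with EC50 derived from yield reduction.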

[1] = system: Dengue-2 (Strain New Guinea C); assay: Viral yield assay against Dengue-2 in Vero cells; assay type: cell-based, Dengue virus; settings: Dengue virus, read-out: Activity (EC50 in μM) DENV-2
Method in brief: as §1

[2] = DENV2, viral yield assay, Vero cells, MOI 0.1, 48 hours post infection

| SMILES | EC50 (DENV-4; DENV4, viral yield assay) | EC50 (DENV-1; DENV1, viral yield assay) | EC50 (DENV-3; DENV3, viral yield assay) | EC50 [1, 2] | EC50 (DENV-4; DENV4) | EC50 (DENV-1; DENV1) | EC50 (DENV-3; DENV3) | EC50 ([1]; DENV2, Vero cells) | EC50 ([1]; DENV2, Vero, 48 h) |
| --- | --- | --- | --- | --- | --- | --- | --- | --- | --- |
| COc1ccc(-c2ccc3c(N)c(C(=O)Nc4ccc(Br)cc4)sc3n2)cc1 [Compound 469, 3-amino-N-(4-bromophenyl)-6-(4-methoxyphenyl)thieno[2,3-b]pyridine-2-carboxamide] | < 5 µM | < 5 µM | < 5 µM | < 5 µM | – | – | – | – | – |
| COc1ccc(NC(=O)c2sc3nc(-c4ccc(Cl)cc4)ccc3c2N)c(OC)c1 [Compound 652, 3-amino-6-(4-chlorophenyl)-N-(2,4-dimethoxyyphenyl)thieno[2,3-b]pyridine-2-carboxamide] | < 5 µM | < 5 µM | < 5 µM | < 5 µM | – | – | – | – | – |
| Cc1ccc(NC(=O)c2sc3nc(-c4ccc5c(c4)OCO5)ccc3c2N)cc1Cl [Compound 529, 3-amino-6-(1,3-benzodioxol-5-yl)-N-(3-chloro-4-methyl-phenyl)thieno[2,3-b] pyridine-2-carboxamide] | < 5 µM | < 5 µM | < 5 µM | < 5 µM | – | – | – | – | – |
| COc1ccc(-c2ccc3c(N)c(C(=O)Nc4ccc(C)c(C)c4)sc3n2)cc1OC [Compound 577, 3-amino-6-(3,4-dimethoxyphenyl)-N-(3,4-dimethylphenyl)thieno[2,3-b] pyridine-2-carboxamide] | < 5 µM | < 5 µM | < 5 µM | < 5 µM | – | – | – | – | – |
| O=C(Nc1c(C(=O)Nc2nnc(-c3ccccc3)s2)sc2nc3c(cc12)CCCCC3)c1ccccn1 [Compound 360, N-(5-phenyl-1,3,4-thiadiazol-2-yl)-3-(picolinamido)-6,7,8,9-tetrahydro-5H-cyclohepta[b]thieno[3,2-e]pyridine-2-carboxamide] | – | – | – | – | < 5 µM | > 25 µM | > 25 µM | < 5 µM | – |
| COc1ccc(-c2ccc3c(N)c(C(=O)Nc4ccc(Br)cc4F)sc3n2)cc1OC [Compound 628, 3-amino-N-(4-bromo-2-fluoro-phenyl)-6-(3,4-dimethoxyphenyl)thieno[2,3-b] pyridine-2-carboxamide] | < 5 µM | < 5 µM | < 5 µM | < 5 µM | – | – | – | – | – |
| Nc1c(C(=O)Nc2ccc3ccccc3c2)sc2nc3c(cc12)CCCCC3 [Compound 365, 3-amino-N-(naphthalen-2-yl)-6,7,8,9-tetrahydro-5H-cyclohexpta[b]thieno[3,2-e] pyridine-2-carboxamide] | > 25 µM | 5 to 25 µM | 5 to 25 µM | < 5 µM | – | – | – | – | – |
| Nc1c(C(=O)N(CCC(=O)O)c2cccc(C(F)(F)F)c2)sc2nc(-c3cccs3)ccc12 [Compound 327, 3-[N-[3-amino-6-(2-thienyl)thieno[2,3-b]pyridine-2-carbonyl]-3-(trifluoromethyl)-anilino]propanoic acid] | < 5 µM | < 5 µM | < 5 µM | < 5 µM | – | – | – | – | – |
| Nc1c(C(=O)Nc2nnc(-c3ccccc3)s2)sc2nc3c(cc12)C(F)CCCC3 (stereo not shown) [Compound 330] | 5 to 25 µM | 5 to 25 µM | 5 to 25 µM | < 5 µM | – | – | – | – | – |
| Nc1c(C(=O)N(CCC(=O)O)c2ccc(Br)cc2)sc2nc(-c3ccc(Cl)cc3)ccc12 [Compound 350, 3-(N-[3-amino-6-(4-chloro-phenyl)thieno [2,3-b]pyridine-2-carbonyl]-4-bromoanilino) propanoic acid] | < 5 µM | < 5 µM | < 5 µM | < 5 µM | – | – | – | – | – |
| COc1ccc(-c2ccc3c(N)c(C(=O)Nc4ccc(F)cc4)sc3n2)cc1 [Compound 491, 3-amino-N-(4-fluorophenyl)-6-(4-methoxyphenyl)thieno[2,3-b]pyridine-2-carboxamide] | < 5 µM | > 25 µM | 5 to 25 µM | – | – | – | – | – | < 5 µM |
| Nc1c(C(=O)Nc2ccc3c(c2)OCCO3)sc2nc(-c3cccs3)ccc12 [Compound 415, 3-amino-N-(2,3-dihydro-1,4-benzodioxin-6-yl)-6-(2-thienyl)thieno[2,3-b] pyridine-2-carboxamide] | < 5 µM | < 5 µM | < 5 µM | < 5 µM | – | – | – | – | – |
| COc1ccc(-c2ccc3c(N)c(C(=O)Nc4ccc(Br)c(C(F)(F)F)c4)sc3n2)cc1OC [Compound 583, 3-amino-N-[4-bromo-3-(trifluoromethyl)phenyl]-6-(3,4-dimethoxyphenyl)thieno [2,3-b]pyridin-2-carboxamide] | < 5 µM | < 5 µM | < 5 µM | < 5 µM | – | – | – | – | – |
| COc1cccc(-c2ccc3c(N)c(C(=O)Nc4ccc(OC)cc4OC)sc3n2)c1 [Compound 512, 3-amino-N-(2,4-dimethoxyphenyl)-6-(3-methoxyphenyl)thieno[2,3-b]pyridine-2-carboxamide] | < 5 µM | < 5 µM | < 5 µM | < 5 µM | – | – | – | – | – |
| COc1ccc(-c2ccc3c(N)c(C(=O)Nc4ccc(C(C)=O)cc4)sc3n2)cc1 [Compound 494, N-(4-acetylphenyl)-3-amino-6-(4-methoxyphenyl)thieno[2,3-b]pyridine-2-carboxamide] | < 5 µM | < 5 µM | 5 to 25 µM | – | – | – | – | – | < 5 µM |
| COc1cccc(-c2ccc3c(N)c(C(=O)Nc4cc(Cl)ccc4Cl)sc3n2)c1 [Compound 495, 3-amino-N-(2,5-dichlorophenyl)-6-(3-methoxyphenyl)thieno[2,3-b]pyridine-2-carboxamide] | < 5 µM | < 5 µM | < 5 µM | < 5 µM | – | – | – | – | – |
| Cc1cc(Br)ccc1NC(=O)c1sc2nc(-c3ccc4c(c3)OCO4)ccc2c1N [Compound 497, 3-amino-6-(1,3-benzodioxol-5-yl)-N-(4-bromo-2-methyl-phenyl)thieno[2,3-b] pyridine-2-carboxamide] | < 5 µM | < 5 µM | < 5 µM | < 5 µM | – | – | – | – | – |
| COc1ccc(-c2ccc3c(N)c(C(=O)Nc4cc(Cl)ccc4Cl)sc3n2)cc1OC [Compound 575, 3-amino-N-(2,5-dichlorophenyl)-6-(3,4-dimethoxyphenyl)thieno[2,3-b]pyridine-2-carboxamide] | < 5 µM | < 5 µM | < 5 µM | < 5 µM | – | – | – | – | – |
| COc1ccc(NC(=O)c2sc3nc(-c4cccc(OC)c4)ccc3c2N)cc1 [Compound 506, 3-amino-6-(3-methoxyphenyl)-N-(4-methoxyphenyl)thieno[2,3-b]pyridine-2-carboxamide] | < 5 µM | < 5 µM | < 5 µM | < 5 µM | – | – | – | – | – |
| Nc1c(C(=O)Nc2ccc(Cl)cn2)sc2nc(-c3ccc(Cl)cc3)ccc12 [Compound 352, 3-amino-6-(4-chlorophenyl)-N-(5-chloro-2-pyridyl)thieno [2,3-b]pyridine-2-carboxamide] | < 5 µM | < 5 µM | < 5 µM | < 5 µM | – | – | – | – | – |
| O=C(O)CC(=O)Nc1c(C(=O)Nc2nnc(-c3ccccc3)s2)sc2nc3c(cc12)CCCCC3 [Compound 295, 3-oxo-3-((2-((5-phenyl-1,3,4-thiadiazol-2-yl)carbamoyl)-6,7,8,9-tetrahydro-5H-cyclohepta[b]thieno[3,2-e]pyridin-3-yl)amino)propanoic acid] | – | – | – | – | < 5 µM | < 5 µM | < 5 µM | < 5 µM | – |
| Nc1c(C(=O)Nc2ccc(Br)cc2)sc2nc(-c3ccc(Cl)cc3)ccc12 [Compound 425] | < 5 µM | < 5 µM | < 5 µM | < 5 µM | – | – | – | – | – |
